The values that follow come from patent US6828450B2, “Triptycene analogs” (Kansas State University Research Foundation, priority 2000, dated 2004).

Each structure is given as a SMILES string. Several values for one entry are separate records, joined by “and”; a condition that tells them apart may be missing. Identical values can stand only once. Like-named read-outs stand apart in the source and are kept apart here.

Test [1] has as its system HL-60-R8 cells. Briefly: DNA synthesis in HL-60-R8 cells. The settings on record: read-out: IC50, inhibition of DNA synthesis in HL-60-R8 cells. Type of test: cell-based, human.
In test [2] the test system is L1210 cells. Briefly: DNA cleavage (intact chromatin precipitation) in L1210 cells. Type of test: cell-based, murine. As to the method: FIG. 19. Comparison of the concentration-dependent effects of novel TT analogs and known DNA-damaging anticancer drugs on DNA cleavage in L1210 cells in vitro. […] After lysing the cells in HLB containing 0.2% Triton X-100, the detergent-soluble DNA fragments present in the supernatants and the intact chromatin DNA remaining in the pellets were separated by centrifugation and their radioactivity estimated by LSC. Results are expressed as [cpm in supernatant/cpm in supernatant+pellet]×100 at 24 h. For untreated controls (5.3±0.6% DNA fragmentation; striped area), the supernatant is 741±79 cpm and the pellet is 13,293±1,446 cpm.
FIG. 20. Comparison of the abilities of novel TT analogs to induce DNA cleavage in L1210 cells in vitro. Cells containing prelabeled DNA were incubated at 37° C. for 24 h in the presence or absence (control) of 7 μM concentrations of the indicated compounds. The protocol of the experiment and the determination of the results were identical to those of FIG. 12.
FIG. 22. Irreversibility of the effects of novel TT analogs and known DNA-damaging anticancer drugs on DNA cleavage in L1210 cells in vitro. Cells containing prelabeled DNA were incubated at 37° C. for various periods of time in the presence or absence (control) of 10 μM TT1 or TT2 and 1.6 μM DAU or CPT. The protocol of the experiment and the determination of the results at 24 h were identical to those of FIG. 19, except that the drugs were either maintained in the medium for the whole 24-h period of incubation (open) or removed after the first 3 (striped) and 8 h (closed). After spinning and washing the appropriate samples to remove the drugs, cells were resuspended in 0.5 ml of fresh medium to complete the 24-h period of incubation in the absence of drugs. Vehicle-treated controls were similarly spun and washed at 3 and 8 h. Bars: means±SD (n=3).
Drug-induced DNA cleavage was determined by intact chromatin precipitation, using L1210, HL-60-S, HL-60-RV and HL-60-R8 cells which were prelabeled with 1 μCi of ^3H-thymidine for 2 h at 37° C., washed with 3×1 ml of ice-cold PBS, collected by centrifugation, and resuspended in fresh FCS-containing RPMI 1640 medium at a density of about 1×10^6 cells/0.5 ml for L1210 and 0.5×10^6 cells/0.5 ml for HL cells. Except when otherwise specified, such cells containing prelabeled DNA were then exposed for 24 h to TTs and drugs known to induce DNA fragmentation. After centrifugation at 200×g for 10 min to discard the drugs and wash the cells, the intact cell pellets were lysed for 30 min in 0.5 ml of HLB, centrifuged at 12,000×g for 30 min to collect the supernatants, and resuspended in 0.5 ml of HLB. After another similar centrifugation, the radioactivities in the pooled supernatants (detergent-soluble low molecular weight DNA fragments) and the pellet (intact chromatin DNA) were determined by LSC: % DNA fragmentation=[cpm in supernatant/cpm in supernatant+pellet]×100. Before being counted in 6 ml of Bio-Safe NA, the intact pelleted chromatin was incubated for 2 h at 60° C. in the presence of 0.6 ml of NCS tissue solubilizer (Amersham).

Test [3] deals with HL-60-S cells. Briefly: HL-60-S cell proliferation assay. Type of test: cell-based, human. The text has this: (§1) The MDR HL-60-RV and HL-60-R8 cells were developed in Melvin S. Center's laboratory (Kansas State University) and similarly maintained in RPMI 1640 medium in the absence of drugs (Marsh W, et al, Cancer Res 46: 4053-4057, 1986; McGrath T et al, and Center M S: Biochem Biophys Res Commun 145: 1171-1176, 1987; Marsh W and Center M S: Cancer Res 47: 5080-5086, 1987; McGrath T, et al, Biochem Pharmacol 38: 3611-3619, 1989; Marquardt D, et al, Cancer Res 50: 1426-1430, 1990; Marquardt D and Center M S: J Natl Cancer Inst 83: 1089-1109, 1991; Krishnamachary N and Center M S; Cancer Res 53: 3658-3661, 1993). Every 4 weeks, these HL-60-RV and HL-60-R8 sublines were exposed to 41 nM DAU for 48 h to stabilize their MDR phenotype. This concentration of DAU, which is not cytotoxic to MDR HL-60 sublines, was removed from the culture medium at least 48 h before experimentation. […] RFs were determined by dividing the IC50 of the MDR cells by that of the sensitive WT parent cell line.

Test [4] relates to L1210 cells. Briefly: Mitotic index of L1210 cells. Type of test: cell-based, murine. Particulars: 24 h; for decrease of the % of mitotic cells: DAU 0.256-1.6 μM, highest concentrations of TT2 tested. As to the method: FIG. 18. Effects of the novel TT analog TT2 and DAU on the mitotic index of L1210 cells in vitro. […] Cells (10^6/0.5 ml of RPMI 1640 medium) were incubated in triplicate for 24 h at 37° C. in the presence or absence (control) of 0.256, 0.64, 1.6 and 4 μM TT2, 0.256, 0.64 and 1.6 μM DAU, 0.2 μM VCR or 1 μM H10. After fixation with MeOH:acetic acid (3:1) and staining with 0.1% crystal violet, about 500 cells/slide were scored for mitotic figures and the mitotic index was expressed as the % of mitotic cells in drug-treated cultures divided by the % of mitotic cells in non-treated controls. The mean % of mitotic cells in control at 24 h was 1.86±0.43%.
L1210 cells (about 1×10^6/0.5 ml of FCS-containing RPMI 1640 medium) were incubated in triplicate for 24 h at 37° C. in the presence or absence of TTs or known antimitotic drugs, and collected by centrifugation at 200×g for 10 min to determine their mitotic index. For hypotonic treatment, cells were resuspended in 1 ml of 75 mM KCl for 20 min at 4° C. After fixation in 1 ml of MeOH:acetic acid (3:1), the final cell pellets were collected by centrifugation, resuspended in 75 μl of MeOH:acetic acid (3:1), dispensed onto glass slides, air dried, and stained by spreading 40 μl of 0.1% crystal violet under a coverslip. The % of cells in mitosis was determined microscopically by counting 500 cells/slides. The mitotic index was calculated as the % of mitotic cells in drug-treated cultures divided by the % of mitotic cells in non-treated controls.

Test [5] concerns HL-60-R8 cells. Briefly: HL-60-R8 (MDR) cell proliferation assay. Particulars: read-out: IC50, inhibition of HL-60-R8 cell proliferation. Type of test: cell-based, human.
From the text: as §1

Test [6] concerns Plasmodium falciparum 3D7. Briefly: Antimalarial activity, inhibition of Plasmodium falciparum 3D7. Type of test: cell-based. The settings on record: malaria strain 3D7.

Regarding `COc1cccc2c1C(=O)c1c(O)c3c(c(O)c1C2=O)C[C@@](O)(C(C)=O)C[C@@H]3O[C@H]1C[C@H](N)[C@H](O)[C@H](C)O1` [DAU, daunomycin, reference compound], the IC50 in test [1] (Homo sapiens) worked out at 1700 nM; in test [3] (Homo sapiens, 48 h, read-out: IC50, inhibition of HL-60-S cell proliferation), 14 nM; in test [3] (Homo sapiens, 96 h, read-out: IC50, inhibition of HL-60-S cell proliferation), 9 nM; in test [5] (Homo sapiens, 48 h), 320 nM; in test [5] (Homo sapiens, 96 h) it was 225 nM. In addition, the “DNA cleavage (% DNA fragmentation)” value in test [2] (1.6 μM, 24 h) is on record as 45%. Also, the “DNA fragmentation at 24 h, drug maintained or removed” value in test [2] (1.6 μM, maintained or removed after 3 or 8 h) is recorded as 33-41%. In test [4], the “decrease of the % of mitotic cells” value is 74-91%.
`COC1=CC(=O)C2=C(C1=O)C1C3=C(C(=O)C=CC3=O)C2c2ccccc21` (centres unmarked) [TT2, 2-Methoxy-9,10-dihydro-9,10-[1′,2′]benzenoanthracene-1,4,5,8-tetraone]: the IC50 in test [1] is 2100 nM; in test [6], 8000 nM; in test [3] (HL-60-S, HL-60-RV and HL-60-R8, day 4, read-out: IC50 values, inhibition of cell proliferation, range over the three lines), 260 to 300 nM; in test [3] (day 2, read-out: IC50, inhibition of HL-60-S cell proliferation), 400 nM; in test [3] (day 4, read-out: IC50, inhibition of HL-60-S cell proliferation), 300 nM; in test [5] (day 2) it was 350 nM. In addition, the IC50 in test [5] (day 4) worked out at 290 nM. For the same molecule, in test [2] (10 μM, drug removed after 3 and 8 h), the “DNA fragmentation at 24 h after short exposure” value was 58-67%. Also, in test [2] (10 μM, whole 24 h), the “DNA cleavage (% DNA fragmentation)” value was 61% and 63%. Moreover, in test [2] (DNA cleavage at 24 h, internucleosomal fragmentation at 48-72 h), the “concentration at which induction of DNA cleavage peaks” value fell in the range of 4 to 10 µM. Also, the “times higher TT2 than DAU concentrations needed for the same peak of DNA cleavage” value in test [2] (L1210, 24 h) was “about 6 times”. For the same molecule, the “times TT2 inhibits tumor cell growth less effectively than DAU” value in test [3] (HL-60-S) is 33 times. Besides, in test [4], the “effect on the mitotic index” value is listed as “does not increase”. Also, the “decrease of the % of mitotic cells” value in test [4] is 38-48%.
In turn, `COC1=C(Br)C(=O)C2=C(C1=O)C1C3=C(C(=O)C=C(N(C)C)C3=O)C2c2ccccc21` (centres unmarked) [TT16, 2-Bromo-3-methoxy-6-(dimethylamino)-9,10-dihydro-9,10-[1′,2′]benzenoanthracene-1,4,5,8-tetraone] displayed an IC50 in test [6] of 5600 nM.
